# “And” between values parts separate entries of the source, which are not always exact repeats. Equal values may be shown once.
# Columns and labels:
# Uromyces appendiculatus = assay: In vivo preventive test on Uromyces appendiculatus (bean rust); conditions: for protection: dose of 100 and 10 ppm of active ingredient
# Description: In Vivo Preventive Test on Uromyces appendiculatus (Bean Rust)
# (§1) Solvent: 5% by volume of Dimethyl sulfoxide • 10% by volume of Acetone
# (§2) Emulsifier: 1 μL of Tween® 80 per mg of active ingredient
# The active ingredients are made soluble and homogenized in a mixture of Dimethyl sulfoxide/Acetone/Tween® 80 and then diluted in water to the desired concentration.
# The young plants of bean are treated by spraying the active ingredient prepared as described above. Control plants are treated only with an aqueous solution of Acetone/Dimethyl sulfoxide/Tween® 80.
# After 24 hours, the plants are contaminated by spraying the leaves with an aqueous suspension of Uromyces appendiculatus spores. The contaminated bean plants are incubated for 24 hours at 20° C. and at 100% relative humidity and then for 10 days at 20° C. and at 70-80% relative humidity.
# (§3) The test is evaluated 11 days after the inoculation. 0% means an efficacy which corresponds to that of the control plants while an efficacy of 100% means that no disease is observed.
# [1] = log P by HPLC on a reversed-phase column (C 18), EEC Directive 79/831 Annex V.A8; format: physicochemical; conditions: HPLC, reversed-phase column (C 18), 40° C., 0.1% aqueous formic acid and acetonitrile, linear gradient 10% to 90% acetonitrile
# Procedure, shortened: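 Reversed-phase C18 HPLC at 40° C, 0.1% aqueous formic acid/acetonitrile gradient from 10% to 90% acetonitrile. log P derived from retention times by linear interpolation between unbranched alkan-2-ones (3–16 carbons) of known log P.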
# Phakopsora pachyrhizi = assay: In vivo preventive test on Phakopsora pachyrhizi (soybean rust)
# Description: In Vivo Preventive Test on Phakopsora pachyrhizi (Soybean Rust)
# Solvent: 24.5 parts by weight of acetone • 24.5 parts by weight of N,N-dimethylacetamide
# Emulsifier: 1 part by weight of alkylaryl polyglycol ether
# To produce a suitable preparation of active compound, 1 part by weight of active compound is mixed with the stated amounts of solvent and emulsifier, and the concentrate is diluted with water to the desired concentration.
# To test for preventive activity, young plants are sprayed with the preparation of active compound at the stated rate of application. After the spray coating has dried on, the plants are inoculated with an aqueous spore suspension of the causal agent of soybean rust (Phakopsora pachyrhizi) and stay for 24 h without light in an incubation cabinet at approximately 24° C. and a relative atmospheric humidity of 95%.
# The plants remain in the incubation cabinet at approximately 24° C. and a relative atmospheric humidity of approximately 80% and a day/night interval of 12 h.
# The test is evaluated 7 days after the inoculation. 0% means an efficacy which corresponds to that of the untreated control, while an efficacy of 100% means that no disease is observed.
# Puccinia recondita = assay: In vivo preventive test on Puccinia recondita (brown rust on wheat); conditions: for protection: dose of 100 and 10 ppm of active ingredient
# Description: In Vivo Preventive Test on Puccinia recondita (Brown Rust on Wheat)
# as §1, §2
# The active ingredients are made soluble and homogenized in a mixture of Dimethyl sulfoxide/Acetone//Tween® 80 and then diluted in water to the desired concentration.
# The young plants of wheat are treated by spraying the active ingredient prepared as described above. Control plants are treated only with an aqueous solution of Acetone/Dimethyl sulfoxide/Tween® 80. After 24 hours, the plants are contaminated by spraying the leaves with an aqueous suspension of Puccinia recondita spores. The contaminated wheat plants are incubated for 24 hours at 20° C. and at 100% relative humidity and then for 10 days at 20° C. and at 70-80% relative humidity.
# as §3
smiles,measurement,setting,value
Cn1nc(C(F)F)c(C(=O)N(Cc2cc(F)ccc2C2(C)CC2)C2CC2)c1F [I.066],Efficacy,"Uromyces appendiculatus; Table B1, dose 10 ppm",100%
same,Efficacy,"Uromyces appendiculatus; Table B1, dose 100 ppm",100%
same,protection,Uromyces appendiculatus,total protection
same,logP,[1],3.89
same,Efficacy,"Phakopsora pachyrhizi; Table C3, dose 10 ppm",89%
"Cn1nc(C(F)F)c(C(=O)N(Cc2cc(F)ccc2C2(C)CC2)C2CC2)c1Cl [I.8 from WO-2013/156559, 5-chloro-N-cyclopropyl-3-(difluoromethyl)-N-[5-fluoro-2-(1-methylcyclopropyl)benzyl]-1-methyl-1H-pyrazole-4-carboxamide, reference compound]",Efficacy,"Uromyces appendiculatus; Table B2, dose 10 ppm",14%
same,Efficacy,"Uromyces appendiculatus; Table B2, dose 100 ppm",95%
same,protection,Uromyces appendiculatus; listed as I.8,total to poor (less than 20%) protection
same,Efficacy,"Puccinia recondita; Table A1, dose 10 ppm",38%
same,Efficacy,"Puccinia recondita; Table A1, dose 100 ppm",94%
same,protection,Puccinia recondita; listed as I.8,total to average (less than 40%) protection
CCC1(c2ccc(Cl)cc2CN(C(=O)c2c(C(F)F)nn(C)c2F)C2CC2)CC1 [I.110],logP,[1],4.59
same,Efficacy,"Phakopsora pachyrhizi; Table C2, dose 10 ppm",98%
same,protection,Phakopsora pachyrhizi; dose of 10 ppm of active ingredient,at least 90%
Cn1nc(C(F)F)c(C(=O)N(Cc2cc(F)ccc2C2(C)CC2)C2CC2)c1Cl [I.067],Efficacy,"Uromyces appendiculatus; Table B2, dose 10 ppm",93%
same,Efficacy,"Uromyces appendiculatus; Table B2, dose 100 ppm",100%
same,protection,Uromyces appendiculatus,at least 90%
same,logP,[1],4.04
same,Efficacy,"Puccinia recondita; Table A1, dose 10 ppm",98%
same,Efficacy,"Puccinia recondita; Table A1, dose 100 ppm",100%
same,protection,Puccinia recondita,at least 90%
CCC1(c2cc(C)c(F)cc2CN(C(=O)c2c(C(F)F)nn(C)c2F)C2CC2)CC1 [I.106],logP,[1],4.67
same,Efficacy,"Phakopsora pachyrhizi; Table C3, dose 10 ppm",100% and 98%

# Reference: US10070645B2, “N-cycloalkyl-N-{[2-(1-substitutedcycloalkyl)phenyl]methylene}-(thio)carboxamide derivatives” (BAYER CROPSCIENCE AKTIENGESELLSCHAFT, priority 2013, dated 2018)
